According to patent publication US20060132952A1, “Enhanced data storage and retrieval devices and systems and methods for utilizing same” (priority 2002, published 2006):

Columns and labels:
[1] = Sucrose solubility in conditioned (sodium lamp) vs control water at room temperature (22° C.); format: physicochemical
Description: Beaker “II” was placed under another sodium lamp 12 as like Beaker “KK”; and Beaker “JJ” was placed in the same incubator as Beaker “LL”. […] Specifically, Beaker “GG” was placed under another sodium lamp 12 as like Beaker “KK” and Beaker “II”; and Becker “HH” was placed into the same incubator as Beaker “LL” and “II”.

[2] = Phenyl salicylate solubility in conditioned (neon lamp) vs unconditioned acetone at room temperature (22° C.); format: physicochemical; details: equilibrated about 20 hours
Description: Acetone (about 1 ml) was pipetted into small glass test tubes and stoppers placed in the tube. Tubes were placed under a neon lam; (about 8 m/cm^2) in an otherwise dark room for about 1-5 hours at about 28° C. ambient temperature. Tubes were also placed simultaneously in an incubator at 28° C. for about 1.5 hours.
Phenyl solicylate (about 3.50 grams) was added to each tube leaving a layer undissolved on the bottom of each tube. The solutions were allowed to equilibrate (about 20 hours). Solution was filtered over the crystals and 0.500 ml pipetted into fresh tubes. After the acetone evaporated, dry weights of phenyl solicylate per ml dissolved in conditioned and unconditioned acetone were determined.

| SMILES | Weight (dry sucrose weight per 100 ml solution) ([1]; GG, water under sodium lamp one hour, 23.5° C.) [g/100 ml] | Weight (dry sucrose weight per 100 ml solution) ([1]; HH, control water 1 hour, 23° C.) [g/100 ml] | Weight (dry sucrose weight per 100 ml solution) ([1]; II, water under sodium lamp two hours, 23.5° C.) [g/100 ml] | Weight (dry sucrose weight per 100 ml solution) ([1]; JJ, control water 2 hours, 23.5° C.) [g/100 ml] | Weight (dry sucrose weight per 100 ml solution) ([1]; KK, water under Na lamp three hours, 23.5° C.) [g/100 ml] | Weight (dry sucrose weight per 100 ml solution) ([1]; LL, control water 3 hours, 23.5° C.) [g/100 ml] | more sucrose dissolved by conditioned water than by untreated control water ([1]; two hours exposure of water to sodium lamp) | Average amount dissolved in unconditioned acetone ([2]; acetone kept in incubator at 28° C.) [g/mL] | Average amount dissolved in conditioned acetone ([2]; acetone under neon lamp) [g/mL] |
| --- | --- | --- | --- | --- | --- | --- | --- | --- | --- |
| OC[C@H]1O[C@@](CO)(O[C@H]2O[C@H](CO)[C@@H](O)[C@H](O)[C@H]2O)[C@@H](O)[C@@H]1O [Sucrose] | 49 | 49 | 47 | 44 | 46 | 49 | about 7% |  |  |
| O=C(Oc1ccccc1)c1ccccc1O [phenyl salicylate] |  |  |  |  |  |  |  | 0.68 | 0.78 |
